From patent US10669242B2 (priority 2016, dated 2020)

Target: T1, recombinant glucosyltransferase domain of C. difficile Toxin B/TcdB (Clostridioides difficile, UniProt P18177)
T1 construct: 6-His (C); purchased R&D Systems 6246-GT
Experiment: biochemical

T1 sequence (P18177 1-543): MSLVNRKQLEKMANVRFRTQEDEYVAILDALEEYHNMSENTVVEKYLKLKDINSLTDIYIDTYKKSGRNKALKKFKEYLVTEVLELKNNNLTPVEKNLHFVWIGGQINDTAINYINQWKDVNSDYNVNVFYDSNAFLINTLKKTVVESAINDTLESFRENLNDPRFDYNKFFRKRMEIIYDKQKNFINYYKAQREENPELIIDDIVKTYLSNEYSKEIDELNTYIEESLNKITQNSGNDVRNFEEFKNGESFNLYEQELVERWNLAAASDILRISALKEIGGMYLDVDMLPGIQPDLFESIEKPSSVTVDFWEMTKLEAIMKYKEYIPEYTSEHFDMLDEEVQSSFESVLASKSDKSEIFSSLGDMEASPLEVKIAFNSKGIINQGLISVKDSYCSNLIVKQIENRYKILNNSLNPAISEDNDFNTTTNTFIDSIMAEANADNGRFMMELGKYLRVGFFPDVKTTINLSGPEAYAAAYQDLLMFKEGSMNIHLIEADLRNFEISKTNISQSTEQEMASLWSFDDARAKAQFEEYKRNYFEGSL

With O=C(Nc1ccccn1)c1ccc(CN2C(=O)c3ccc(F)cc3NC(=O)[C@H]2Cc2ccc(Cl)c(Cl)c2)cc1 [Example 4q, (R)-4-((3-(3,4-dichlorobenzyl)-8-fluoro-2,5-dioxo-2,3-dihydro-1H-benzo[e][1,4]diazepin-4(5H)-yl)methyl)-N-(pyridin-2-yl)benzamide] as the molecule, how does the IC50 read?
Its IC50 is 100 to 999 nM.

O=C(Nc1cc(Cl)ccn1)c1ccc(CN2C(=O)c3ccc(Cl)cc3NC(=O)[C@H]2Cc2cccnc2)cc1 [Example 4r, (R)-4-((8-chloro-2,5-dioxo-3-(pyridin-3-ylmethyl)-2,3-dihydro-1H-benzo[e][1,4]diazepin-4(5H)-yl)methyl)-N-(4-chloropyridin-2-yl)benzamide] was tested. Which IC50 did it give?
Its IC50 is less than 100 nM.

For Cc1ccnc(NC(=O)c2ccc(CN3C(=O)c4ccc(Cl)cc4NC(=O)[C@H]3Cc3cccnc3)cc2)c1 [Example 4s, (R)-4-((8-chloro-2,5-dioxo-3-(pyridin-3-ylmethyl)-2,3-dihydro-1H-benzo[e][1,4]diazepin-4(5H)-yl)methyl)-N-(4-methylpyridin-2-yl)benzamide], which IC50 is on record?
The IC50 was less than 100 nM.

Which IC50 does the source give for O=C(Nc1ccncn1)c1ccc(CN2C(=O)c3ccc(Cl)cc3NC(=O)[C@H]2Cc2cccnc2)cc1 [Example 4t, (R)-4-((8-chloro-2,5-dioxo-3-(pyridin-3-ylmethyl)-2,3-dihydro-1H-benzo[e][1,4]diazepin-4(5H)-yl)methyl)-N-(pyrimidin-4-yl)benzamide] here?
Its IC50 is less than 100 nM.

Which IC50 does the source give for O=C(Nc1ccccn1)c1ccc(CN2C(=O)c3ccc(Cl)cc3NC(=O)[C@H]2Cc2ccncc2)cc1 [Example 4u, (R)-4-((8-chloro-2,5-dioxo-3-(pyridin-4-ylmethyl)-2,3-dihydro-1H-benzo[e][1,4]diazepin-4(5H)-yl)methyl)-N-(pyridin-2-yl)benzamide] here?
The IC50 was 100 to 999 nM.

For O=C(Nc1ccccn1)c1ccc(CN2C(=O)c3ccc(Cl)cc3NC(=O)[C@H]2Cc2ccccn2)cc1 [Example 4v, (R)-4-((8-chloro-2,5-dioxo-3-(pyridin-2-ylmethyl)-2,3-dihydro-1H-benzo[e][1,4]diazepin-4(5H)-yl)methyl)-N-(pyridin-2-yl)benzamide], which IC50 is on record?
The IC50 was less than 100 nM.

For O=C(Nc1ccccn1)c1ccc(CN2C(=O)c3ccc(Cl)cc3NC(=O)[C@H]2Cc2ccccc2Cl)cc1 [Example 4w, (R)-4-((8-chloro-3-(2-chlorobenzyl)-2,5-dioxo-2,3-dihydro-1H-benzo[e][1,4]diazepin-4(5H)-yl)methyl)-N-(pyridin-2-yl)benzamide], which IC50 is on record?
The IC50 was less than 100 nM.

Which IC50 does the source give for Cc1ccc(NC(=O)c2ccc(CN3C(=O)c4ccc(Cl)cc4NC(=O)[C@H]3Cc3ccccn3)cc2)nc1 [Example 4x, (R)-4-((8-chloro-2,5-dioxo-3-(pyridin-2-ylmethyl)-2,3-dihydro-1H-benzo[e][1,4]diazepin-4(5H)-yl)methyl)-N-(5-methylpyridin-2-yl)benzamide] here?
The IC50 was less than 100 nM.

With C[C@@H]1C(=O)Nc2cc(Cl)ccc2C(=O)N1Cc1ccc(C(=O)N2CCc3cccnc32)cc1 [Example 4y, (R)-8-chloro-4-(4-(2,3-dihydro-1H-pyrrolo[2,3-b]pyridine-1-carbonyl)benzyl)-3-methyl-3,4-dihydro-1H-benzo[e][1,4]diazepine-2,5-dione] as the molecule, how does the IC50 read?
Its IC50 is less than 100 nM.

Which IC50 does the source give for C[C@@H]1C(=O)Nc2cc(Cl)ccc2C(=O)N1Cc1ccc(C(=O)Nc2ccccn2)cc1 [Example 4z, (R)-4-((8-chloro-3-methyl-2,5-dioxo-2,3-dihydro-1H-benzo[e][1,4]diazepin-4(5H)-yl)methyl)-N-(pyridin-2-yl)benzamide] here?
Its IC50 is less than 100 nM.

For COc1cnc(NC(=O)c2ccc(CN3C(=O)c4ccc(Cl)cc4NC(=O)[C@H]3Cc3ccccn3)cc2)nc1 [Example 5a, (R)-4-((8-chloro-2,5-dioxo-3-(pyridin-2-ylmethyl)-2,3-dihydro-1H-benzo[e][1,4]diazepin-4(5H)-yl)methyl)-N-(5-methoxypyrimidin-2-yl)benzamide], which IC50 is on record?
Its IC50 is less than 100 nM.

How did the IC50 turn out when O=C(Nc1ncccc1F)c1ccc(CN2C(=O)c3ccc(Cl)cc3NC(=O)[C@H]2Cc2ccccn2)cc1Cl [Example 5ac, (R)-2-chloro-4-((8-chloro-2,5-dioxo-3-(pyridin-2-ylmethyl)-2,3-dihydro-1H-benzo[e][1,4]diazepin-4(5H)-yl)methyl)-N-(3-fluoropyridin-2-yl)benzamide] was run?
The IC50 was less than 100 nM.

How did the IC50 turn out when Cc1cnc(NC(=O)[C@H]2CC[C@H](CN3C(=O)c4ccc(Cl)cc4NC(=O)[C@H]3Cc3ccccn3)CC2)nc1 [Example 5ad, (1R,4r)-4-(((R)-8-chloro-2,5-dioxo-3-(pyridin-2-ylmethyl)-2,3-dihydro-1H-benzo[e][1,4]diazepin-4(5H)-yl)methyl)-N-(5-methylpyrimidin-2-yl)cyclohexanecarboxamide] was run?
Its IC50 is less than 100 nM.

How did the IC50 turn out when Cc1cnc(NC(=O)c2ccc(CN3C(=O)c4ccc(Cl)cc4NC(=O)[C@H]3Cc3ccccn3)cc2C)nc1 [Example 5ag, (R)-4-((8-chloro-2,5-dioxo-3-(pyridin-2-ylmethyl)-2,3-dihydro-1H-benzo[e][1,4]diazepin-4(5H)-yl)methyl)-2-methyl-N-(5-methylpyrimidin-2-yl)benzamide] was run?
The IC50 was less than 100 nM.

For O=C(Nc1ccc(F)cn1)c1ccc(CN2C(=O)c3ccc(Cl)cc3NC(=O)[C@H]2Cc2ccccn2)cc1Cl [Example 5ao, (R)-2-chloro-4-((8-chloro-2,5-dioxo-3-(pyridin-2-ylmethyl)-2,3-dihydro-1H-benzo[e][1,4]diazepin-4(5H)-yl)methyl)-N-(5-fluoropyridin-2-yl)benzamide], which IC50 is on record?
Its IC50 is less than 100 nM.

Which IC50 does the source give for Cc1cc(CN2C(=O)c3ccc(Cl)cc3NC(=O)[C@H]2Cc2ccccn2)ccc1C(=O)Nc1ccc(F)cn1 [Example 5ap, (R)-4-((8-chloro-2,5-dioxo-3-(pyridin-2-ylmethyl)-2,3-dihydro-1H-benzo[e][1,4]diazepin-4(5H)-yl)methyl)-N-(5-fluoropyridin-2-yl)-2-methylbenzamide] here?
The IC50 was less than 100 nM.

With COc1cc(CN2C(=O)c3ccc(Cl)cc3NC(=O)[C@H]2Cc2ccccn2)ccc1C(=O)Nc1ccc(F)cn1 [Example 5aq, (R)-4-((8-chloro-2,5-dioxo-3-(pyridin-2-ylmethyl)-2,3-dihydro-1H-benzo[e][1,4]diazepin-4(5H)-yl)methyl)-N-(5-fluoropyridin-2-yl)-2-methoxybenzamide] as the molecule, how does the IC50 read?
The IC50 was less than 100 nM.

With C[C@@H]1C(=O)Nc2cc(Cl)ccc2C(=O)N1Cc1ccc(C(=O)Nc2ccc(C(F)(F)F)cn2)c(Br)c1 [Example 5ar, (R)-2-bromo-4-((8-chloro-3-methyl-2,5-dioxo-2,3-dihydro-1H-benzo[e][1,4]diazepin-4(5H)-yl)methyl)-N-(5-(trifluoromethyl)pyridin-2-yl)benzamide] as the molecule, how does the IC50 read?
Its IC50 is 1000 to 10000 nM.

Which IC50 does the source give for Cc1cnc(NC(=O)c2ccc(CN3C(=O)c4ccc(Cl)cc4NC(=O)[C@H]3Cc3ccccn3)cc2Cl)nc1 [Example 5as, (R)-2-chloro-4-((8-chloro-2,5-dioxo-3-(pyridin-2-ylmethyl)-2,3-dihydro-1H-benzo[e][1,4]diazepin-4(5H)-yl)methyl)-N-(5-methylpyrimidin-2-yl)benzamide] here?
Its IC50 is less than 100 nM.

Cc1cc(CN2C(=O)c3ccc(Cl)cc3NC(=O)[C@H]2Cc2ccccn2)ccc1C(=O)Nc1ccc(C#N)cn1 [Example 5at, (R)-4-((8-chloro-2,5-dioxo-3-(pyridin-2-ylmethyl)-2,3-dihydro-1H-benzo[e][1,4]diazepin-4(5H)-yl)methyl)-N-(5-cyanopyridin-2-yl)-2-methylbenzamide] was tested. Which IC50 did it give?
Its IC50 is less than 100 nM.

For N#Cc1ccc(NC(=O)c2ccc(CN3C(=O)c4ccc(Cl)cc4NC(=O)[C@H]3Cc3ccccn3)cc2Cl)nc1 [Example 5au, (R)-2-chloro-4-((8-chloro-2,5-dioxo-3-(pyridin-2-ylmethyl)-2,3-dihydro-1H-benzo[e][1,4]diazepin-4(5H)-yl)methyl)-N-(5-cyanopyridin-2-yl)benzamide], which IC50 is on record?
Its IC50 is less than 100 nM.

Which IC50 does the source give for CS(=O)(=O)c1ccc(NC(=O)c2ccc(CN3C(=O)c4ccc(Cl)cc4NC(=O)[C@H]3Cc3ccccn3)cc2Cl)nc1 [Example 5av, (R)-2-chloro-4-((8-chloro-2,5-dioxo-3-(pyridin-2-ylmethyl)-2,3-dihydro-1H-benzo[e][1,4]diazepin-4(5H)-yl)methyl)-N-(5-(methylsulfonyl)pyridin-2-yl)benzamide] here?
The IC50 was less than 100 nM.

How did the IC50 turn out when CC1(C)CN(C(=O)c2ccc(CN3C(=O)c4ccc(Cl)cc4NC(=O)[C@H]3Cc3ccccn3)cc2Cl)c2ncc(C(F)(F)F)cc21 [Example 5aw, (R)-8-chloro-4-(3-chloro-4-(3,3-dimethyl-5-(trifluoromethyl)-2,3-dihydro-1H-pyrrolo[2,3-b]pyridine-1-carbonyl)benzyl)-3-(pyridin-2-ylmethyl)-3,4-dihydro-1H-benzo[e][1,4]diazepine-2,5-dione] was run?
The IC50 was less than 100 nM.

Which IC50 does the source give for COc1cnc(NC(=O)[C@H]2CC[C@H](CN3C(=O)c4ccc(Cl)cc4NC(=O)[C@H]3Cc3ccccn3)CC2)nc1 [Example 5ax, (1R,4r)-4-(((R)-8-chloro-2,5-dioxo-3-(pyridin-2-ylmethyl)-2,3-dihydro-1H-benzo[e][1,4]diazepin-4(5H)-yl)methyl)-N-(5-methoxypyrimidin-2-yl)cyclohexanecarboxamide] here?
Its IC50 is less than 100 nM.

For O=C(Nc1ncccn1)c1ccc(CN2C(=O)c3ccc(Cl)cc3NC(=O)[C@H]2Cc2cccnc2)cc1 [Example 5b, (R)-4-((8-chloro-2,5-dioxo-3-(pyridin-3-ylmethyl)-2,3-dihydro-1H-benzo[e][1,4]diazepin-4(5H)-yl)methyl)-N-(pyrimidin-2-yl)benzamide], which IC50 is on record?
Its IC50 is less than 100 nM.

How did the IC50 turn out when O=C(Nc1cnccn1)c1ccc(CN2C(=O)c3ccc(Cl)cc3NC(=O)[C@H]2Cc2cccnc2)cc1 [Example 5c, (R)-4-((8-chloro-2,5-dioxo-3-(pyridin-3-ylmethyl)-2,3-dihydro-1H-benzo[e][1,4]diazepin-4(5H)-yl)methyl)-N-(pyrazin-2-yl)benzamide] was run?
The IC50 was less than 100 nM.

How did the IC50 turn out when O=C(Nc1ccc(Cl)cn1)c1ccc(CN2C(=O)c3ccc(Cl)cc3NC(=O)[C@H]2Cc2cccnc2)cc1 [Example 5d, (R)-4-((8-chloro-2,5-dioxo-3-(pyridin-3-ylmethyl)-2,3-dihydro-1H-benzo[e][1,4]diazepin-4(5H)-yl)methyl)-N-(5-chloropyridin-2-yl)benzamide] was run?
The IC50 was less than 100 nM.

With O=C(Nc1ncccc1Cl)c1ccc(CN2C(=O)c3ccc(Cl)cc3NC(=O)[C@H]2Cc2cccnc2)cc1 [Example 5e, (R)-4-((8-chloro-2,5-dioxo-3-(pyridin-3-ylmethyl)-2,3-dihydro-1H-benzo[e][1,4]diazepin-4(5H)-yl)methyl)-N-(3-chloropyridin-2-yl)benzamide] as the molecule, how does the IC50 read?
Its IC50 is 100 to 999 nM.
